Values belong to the compound of their own block, whether it stands above or below them.
Experiments:
ER [1] = biological target: T1, ER (Homo sapiens, UniProt P31947); assay: MS (KD,app), ER; format: binding; details: 24 hr incubation
ER [2] = biological target: T1, ER; assay: Fp (EC50)/fold-stabilization of peptide, ER; format: binding; details: 24 hr incubation
14-3-3σ(C42)/ERα-pp = biological target: T2, 14-3-3σ(C42)/ERα-pp (Homo sapiens, UniProt P31947, C38N/N42C); assay: Fluorescence anisotropy, fragment titration to 14-3-3σ(C42) and fluorescein-ERα-pp; details: 1 μM 14-3-3σ(C42), 100 nM fluorescein-ERα-pp; read-out: EC50 (anisotropy, stabilization of ERα-pp binding)
T2 construct: with a truncated C-terminus after T231; His6 (N, cleaved yes); made in house; host or cells: E. coli NiCo21 (DE3), pPROEX HTb
Protocol: We observed the same trend when we titrated the fragments into a mixture of 1 μM 14-3-3σ(C42) and 100 nM fluorescein-ERα-pp, conditions under which half of the peptide was initially bound. […] The maximum effect was instantaneous at a saturating concentration (100 μM).
Fluorescence Anisotropy. […] Final DMSO concentration in the assay was always 1%. Dilution series of 14-3-3 protein or fragments were made in black, round-bottom 384-microwell plates (Corning) in a final sample volume of 10 μL in triplicates. Fluorescence anisotropy measurements were performed directly and after overnight incubation at room-temperature, using a Tecan Infinite F500 plate reader (filter set λex: 485±20 nm, λem: 535±25 nm). Data reported are at endpoint. EC50 values were obtained from fitting the data with a four-parameter logistic model (4PL) in GraphPad Prism 6.

14-3-3/Pin1_72 complex = biological target: T3, 14-3-3/Pin1_72 complex (Homo sapiens, UniProt P61981); assay: Cooperativity analysis, 14-3-3 titrations at varied constant fragment concentration; format: binding; details: 8 μM compound
T3 construct: the full length 14-3-3γ was dialysis against 25 mM HEPES pH 7.5; made in house; host or cells: E. coli BL21(DE3), pPROEX HTb
From the text: Cooperativity in ternary complex formation. In contrast to PPI inhibition, where affinity to one of the protein pockets is the driving force for drug development, design of molecular glues is driven by cooperative ternary complex formation. Both CC50 and SF values are concentration dependent values and might differ based on assay design. […] Cooperative complex formation is often accompanied by structural changes of the interface of a complex which translates to increased stability of the ternary com-plex. In order to assess cooperativity of the ternary complex, fragments 13, 23, 27 and 28 were selected for cooper-activity analysis. The α-factor of the fragments were determined using 14-3-3 titrations in the presence of varied, but constant concentration of fragment in a dose-dependent manner. […] Further, the interval of change in stabilization further describes the systems cooperative behaviour.
However, at higher concentration regimes significant assay interference was observed, probably due to compound aggregation. Fragments 23, 27 and 28 all reached saturation or approached saturation enabling accurate determination of α-factor. […] KD remains constant also at higher concentrations of FC-A, indicating non-specific effects.

14-3-3/ERα complex = biological target: T4, 14-3-3/ERα complex (Homo sapiens, UniProt P61981); assay: Selectivity screening FA, ERα peptide; format: binding
T4 construct: the full length 14-3-3γ was dialysis against 25 mM HEPES pH 7.5; made in house; host or cells: E. coli BL21(DE3), pPROEX HTb
T4 sequence (P61981 1-247): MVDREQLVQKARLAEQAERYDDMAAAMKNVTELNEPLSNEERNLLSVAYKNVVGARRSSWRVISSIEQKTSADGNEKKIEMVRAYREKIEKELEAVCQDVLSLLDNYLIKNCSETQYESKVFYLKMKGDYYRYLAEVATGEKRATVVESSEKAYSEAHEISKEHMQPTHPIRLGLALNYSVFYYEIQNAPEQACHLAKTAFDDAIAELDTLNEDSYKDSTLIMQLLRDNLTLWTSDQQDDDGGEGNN
From the text: Selectivity screening of covalent fragments. Drugging the hub protein 14-3-3 raises the challenge of selectivity. We hypothesized that the high level of cooperative behavior for 14-3-3/Pin1_72/28 complex is a function of the unique functionality and topology of the interface, specifically the +1 and +3 amino acid of Pin1_72 with the covalent fragment. We further rationalized that this cooperativity would likely translate to high selectivity. To test this hypothesis, fragments 13, 27 and 28 were screened at a single fragment concentration (100 μM) against a panel of 13 peptides as diverse representatives of 14-3-3 client proteins, differing in size and hydrophobicity of the +1 amino acid (FIG. 22A).
(§1) Fluorescence Anisotropy (FA) Assays.

14-3-3/NFκBp65 peptide = 14-3-3/NFκBp65 peptide (Homo sapiens, UniProt P31947); assay: Fluorescence polarization assay, FITC-NFκBp65 peptide binding to 14-3-3 with increasing fragment
From the text: As the primary assays to test for binding and activity we used X-ray protein crystallography (crystal soaking) and a fluorescence polarization assay (FP) employing a fluorophore-labelled (FITC) version of the NFκBp65 peptide. After some rounds of analogues testing, we were able to identify the molecules' electrochemical properties that are enabling the lysine attach to the carbonyl feature of the fragment. […] This reflects a principal feature of orthosteric PPI stabilization which is based on the direct, simultaneous physical interaction of the stabilizer with both protein partners.
In addition to the hydrophobic interaction of the primary phenyl ring of TCF521-129 with the side chain of Ile46, the 2,6-dimethylmorpholine substituent sits on top of this side chain and additionally contacts with one of its methyl groups Pro47 and Gly48. The opposite methyl is engaging a hydrophobic patch in the ‘roof’ of the 14-3-3 groove comprised of Leu218, Ile219, and […] (FIG. 9B, upper row). […] The potential PPI stabilizing activity of both fragments were tested in a fluorescence polarization assay measuring the binding of a fluorescently-labelled (FITC) NFκBp65 peptide to 14-3-3 in the presence of an increasing concentration of the fragment.

Pin1_72/14-3-3σΔC = biological target: T5, Pin1_72/14-3-3σΔC (Homo sapiens, UniProt P31947); assay: X-ray crystal soaking; format: binding; details: 10 mM fragment soak
T5 construct: The 14-3-3σ protein was C-terminally truncated (ΔC) after T231 to enhance crystallization; His6 (cleaved yes); made in house; host or cells: E. coli BL21(DE3), pPROEX HTb
Protocol: X-Ray Crystallography. […] B-Raf/14-3-3σΔC and Abl1/14-3-3σΔC crystals were grown in a sitting drop set up. […] All crystals were directly flash-frozen in liquid nitrogen and data acquisition took place at either the P11 beamline of […] campus, Hamburg, Germany) or i-03/i-24 beamline of the diamond light source (Oxford, UK) or in-house. Fragment screening was performed by crystal soaking, whereby a final concentration of 10 mM fragment was added to fully grown crystals (final DMSO ≤1%). The fragment/crystal mixtures incubated for seven days prior to data acquisition. The diffraction data were analyzed with […] pipeline and MolRep was used for phasing. For model refinement Coot, Refmac5 and phenix.refine were utilized in iterative cycles. The elbow software of the phenix suite was used for ligand preparation based on fragment SMILES. Figures were generated with PyMOL© (V2.0.6, Schrodinger LLC).

Pin1_72/14-3-3γ = biological target: T6, Pin1_72/14-3-3γ (Homo sapiens, UniProt P61981+Q13526); assay: Fluorescence anisotropy protein titration, Pin1_72/14-3-3γ at constant compound; format: binding; details: based on internal DMSO control and 100 μM fragment
T6 construct: the full length 14-3-3γ was dialysis against 25 mM HEPES pH 7.5; made in house; host or cells: E. coli BL21(DE3), pPROEX HTb
From the text: Inspired by the binding poses of 3 and 9 we combined their structural features to improve stabilization. […] In case of complex stabilization, a left shift of apparent KD values is expected, here described as stabilization factors (SF).
as §1

T5 sequence (P31947 1-231 limits assumed, stated change not applied, other chains not shown): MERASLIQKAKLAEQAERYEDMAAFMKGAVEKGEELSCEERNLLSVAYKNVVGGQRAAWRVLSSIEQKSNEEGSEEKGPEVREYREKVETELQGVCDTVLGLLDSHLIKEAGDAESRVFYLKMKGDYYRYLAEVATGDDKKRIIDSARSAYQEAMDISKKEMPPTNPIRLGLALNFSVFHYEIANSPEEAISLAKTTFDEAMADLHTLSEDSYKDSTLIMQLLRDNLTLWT
T1 sequence (P31947 whole entry, other chains not shown): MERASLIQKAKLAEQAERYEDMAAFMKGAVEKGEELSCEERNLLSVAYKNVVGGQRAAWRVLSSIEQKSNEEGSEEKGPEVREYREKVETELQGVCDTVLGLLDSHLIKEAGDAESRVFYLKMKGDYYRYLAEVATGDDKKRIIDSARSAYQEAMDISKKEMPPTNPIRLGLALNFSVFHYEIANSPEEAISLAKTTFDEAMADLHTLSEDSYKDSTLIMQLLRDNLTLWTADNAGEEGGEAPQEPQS
Sequence of 14-3-3/NFκBp65 peptide (P31947 whole entry, other chains not shown, the tested form may be a part): as the sequence (P31947 whole entry, other chains not shown) above
T2 sequence (P31947 1-231 C38N/N42C, other chains not shown): as the sequence (P31947 1-231 limits assumed, stated change not applied, other chains not shown) above, with C38N, N42C counted along it

Structure (SMILES): CC(C)(Oc1ccc(Cl)cc1)C(=O)N1CCC(CNC(=O)CCl)CC1
- Kd (ER [1]): 84.3 µM
- EC50 (ER [2]): 38.9 µM

Structure (SMILES): CC(C)(Oc1ccc(Cl)cc1)C(=O)N1CCC(CCNC(=O)CCl)CC1
- Kd (ER [1]): 33.7 µM
- EC50 (ER [2]): 32.7 µM

Structure (SMILES): C=CC(C)(C)OC[C@H]1O[C@H](O[C@@H]2C3=C([C@H](C)COC(C)=O)C[C@H](O)[C@]3(C)/C=C3/[C@@H](COC)CC[C@H]3[C@@H](C)[C@H]2O)[C@H](O)[C@@H](OC(C)=O)[C@@H]1O [FC-A, fusicoccane-A]
- EC50 (14-3-3σ(C42)/ERα-pp): 0.216 µM

Structure (SMILES): C=CC(C)(C)OC[C@H]1O[C@H](O[C@@H]2C3=C([C@H](C)COC(C)=O)C[C@H](O)[C@]3(C)/C=C3/[C@@H](COC)CC[C@H]3[C@@H](C)[C@H]2O)[C@H](O)[C@@H](OC(C)=O)[C@@H]1O [FCA, Fusicoccin A, reference compound]
- SF 8 μM (14-3-3/Pin1_72 complex): ~10
- stabilization of the 14-3-3/ERα complex (14-3-3/ERα complex): 110 fold

Structure (SMILES): CC(=O)N1CCN(S(=O)(=O)c2ccc(C=O)cc2)CC1 [TCF521-123, 4-[(4-acetylpiperazin-1-yl)sulfonyl]benzaldehyde]
- PPI stabilizing activity (14-3-3/NFκBp65 peptide; highest concentrations tested): only a very weak

Structure (SMILES): CC1CN(S(=O)(=O)c2ccc(C=O)cc2)CC(C)O1 (stereo not shown) [TCF521-129, 4-[(2,6-dimethylmorpholin-4-yl)sulfonyl]benzaldehyde]
- EC50 (14-3-3/NFκBp65 peptide; read-out: EC50 (stabilizes interaction of peptide with 14-3-3)): 370 µM

Next, values leading:

- PDB: electron density due to compound binding (Pin1_72/14-3-3σΔC): n. bind.
Structure (SMILES): O=Cc1ccc(-n2ccnc2-c2ccccc2)c(OC(F)(F)F)c1 [compound 20, 4-(2-phenyl-1H-imidazol-1-yl)-3-(trifluoromethoxy)benzaldehyde]

- PDB: electron density due to compound binding (Pin1_72/14-3-3σΔC): n. bind.
Structure (SMILES): O=Cc1ccc(-n2ccnc2-c2ccccc2)c(Oc2ccccc2)c1 [compound 21, 3-phenoxy-4-(2-phenyl-1H-imidazol-1-yl)benzaldehyde]

- SF (fold stabilization) (Pin1_72/14-3-3γ): 3.32
- PDB: electron density due to compound binding (Pin1_72/14-3-3σΔC): n. bind
Structure (SMILES): O=Cc1ccc(-n2ccnc2-c2ccc(Br)cc2)cc1Br [compound 24, 2-bromo-4-(2-(4-bromophenyl)-1H-imidazol-1-yl)benzaldehyde]

From patent US20230142739A1, “PROTEIN-PROTEIN INTERACTION STABILIZERS” (The Regents of the University of California, priority 2020, published 2023)
